# Experimental data taken from patent publication US12263139B2, “Use of cannabidiol in the treatment of tuberous sclerosis complex” (Jazz Pharmaceuticals Research UK Limited, priority 2017, dated 2025).
# Columns and labels:
# AML 621-101 cells = test: Matrigel cell invasion assay in AML 621-101 cells; format: cell-based; conditions: CBD at both 5 μM and 10 μM
# Method: (i) Angiomyolipomas (AML) cells derived from a Tuberous Sclerosis Complex patient (621-101 cell-line), with a known loss of function of TSC2. […] Zeocin™ was purchased from LifeTechnologies (cat no: R25001) and was used to originally generate the stable cell line (by Prof. Lisa Henske) over two weeks of Zeocin™ selection and then for continued maintenance of the cells in tissue culture (at 100 μg/ml).
# Tsc2−/− and Tsc2+/+ cell lines were cultured and maintained in DMEM supplemented with 10% (v/v) FBS and 1% (v/v) penicillin-streptomycin in a humidified incubator (5% CO2 at 37° C.). […]
# Transwell permeable supports with 6.5 mm diameter inserts, 8.0 μm pore size, and a polycarbonate membrane were used to perform migration assays. […] Cells were counted using a haemocytometer. […] The percentage of adherent cells was then determined by fixing the cells with methanol and acetone (1:1) for 20 minutes at 20° C. […] Crystal Violet stained cells were eluted with 1% (w/v) SDS and the absorbance was read at 550 nm on a Genova MK3 Lifescience.
# For invasion assays, a similar protocol was used; however, the top chamber of the Transwell was filled with […] of BD Matrigel Basement Membrane Matrix (1 mg/mL). […] The number of invaded cells was determined by fixation staining and elution of crystal violet with 1% (w/v) SDS, as before.
# [1] = system: mTORC1 signalling (rpS6 phosphorylation); test: Western blot of rpS6 phosphorylation (mTORC1 signalling) in Tsc2−/− MEFs; format: cell-based, mouse; conditions: CBD at 5 μM, 6 h of treatment
# Method: (§1) Cells were washed in Phosphate Buffered Saline (PBS) and then lysed directly in sample buffer (62.5 mM Tris HCL, 50 mM DTT, 2% SDS (w/v), 10% Glycerol (w/v), 0.1% Bromophenol blue (w/v) pH 7.6) and sonicated for 5×20 s cycles on full power (30 amplitude microns). Samples were boiled at 95° C. for 10 min. Lysates were resolved by SDS-PAGE and proteins were transferred to polyvinylidene difluoride membranes.
# (§2) Membranes were blocked in 5% (w/v) dry milk powder dissolved in Tris-buffered saline containing 0.1% (v/v) Tween, then probed with primary antibody and horse radish peroxidase-conjugated secondary antibody. Proteins were visualized using Enhanced Chemiluminescent solution and Hyperfilm. Antibodies towards ribosomal protein S6 (rpS6), phospho-rpS6 (Ser235/236) were purchased from Cell Signaling Technology. Anti-HIF-1α was obtained from BD transduction laboratories. Statistical Analysis
# Western blotting was carried out to determine whether CBD could impair mTORC1 signalling (using rpS6 phosphorylation as a readout of mTORC1 signalling).
# HIF-1α protein [2] = test: Western blot of hypoxia induced HIF-1α in Tsc2−/− MEFs; format: cell-based, mouse; conditions: CBD at 10 μM
# Method: (§3) Tsc2−/− and Tsc2+/+ cell lines were cultured and maintained in DMEM supplemented with 10% (v/v) FBS and 1% (v/v) penicillin-streptomycin in a humidified incubator (5% CO2 at 37° C.). The AML −/− cell lines were cultured and maintained in DMEM supplemented with 15% (v/v) FBS and 1% (v/v) penicillin-streptomycin in a humidified incubator (5% CO2 at 37° C.). For hypoxia, cells were put into a Binder CB150 hypoxic chamber set at 1% 02 for the indicated time points
# as §1
# as §2, with “Analysis […]” for “Analysis”
# HIF-1α protein [3] = test: Western blot of hypoxia induced HIF-1α in AML 621-101; format: cell-based; conditions: CBD at 10 μM
# Method: as §3, §1
# as §2, with “Analysis […]” for “Analysis”
# pS6 positive cells = test: Size of pS6 positive cells in zebrafish model of TSC; format: in vivo
# Text: A zebrafish model of TSC with a tsc2 gene deletion was used. This model has been previously published and validated (Kim et al. 2011). By mating the gene deletion animals with wild-type tsc2+/+ animals, heterozygote (tsc2+/−) zebrafish were also obtained and tested in this example.
# For both pS6 and TUNEL staining, non-consecutive sections were imaged using a Zeiss AxioImager microscope. Exposure time was kept constant during image acquisition and determined by the observation of a slide where primary antibody or enzyme solution was omitted. Pictures were taken with a 20× objective, using the AxioVision software, and coloured using Fiji ImageJ. All counting and measuring of cells was done in the original black and white pictures.
# Statistical analysis was performed in SPSS (IBM SPSS Statistics 22), except for the chi-square test, which was done using GraphPad Prism 5. Normality and sphericity were tested using the Kolmogorov-Smirnov and Mauchly's tests, respectively. Repeated measures two-way ANOVA tests were used to analyse the locomotor assay data and cell number, while a three-way ANOVA test was used to analyse cell size. Touch response (TR) between genotypes and treatments was analysed by chi-square test. Tests were followed by Tukey or Bonferroni post-hoc tests.
# Miapaca cells = test: MTT cell viability assay in Miapaca; format: cell-based; conditions: Homo sapiens, MIA PaCa-2, 72 h, FIG. 6B, read-out: concentration at which 50% growth inhibition was reached
# Method: MIAPACA is a Homo sapiens pancreas carcinoma. This is a hypotriploid human cell line.
# Cell viability was analyzed by the MTT [3-(4,5-dimethylthiazol-2-yl)-2,5-diphenyl tetrazolium bromide] assay. Pancreatic cancer cells were seeded onto each well of a 96-well plate. After 72 h of treatment with CBD, MTT solution 5 mg/ml in PBS was added to each well. The plates were then incubated at 37° C. for an additional 4 h to allow MTT to form formazan crystals by reacting with metabolically active cells. The formazan crystals were solubilized in a 1N isopropanol/HCl 10% solution at 37° C., on a shaking table for 20 min. The absorbance values of the solution in each well were measured at 570 nm using a microplate reader. Cell viability was determined by the formula: cell viability (%)=(absorbance of the treated wells−absorbance of the blank control wells)/(absorbance of the negative control wells−absorbance of the blank control wells)×100%. All MTT experiments were performed in triplicate and repeated at least three times.
# [4] = treatment resistant paediatric epilepsy; cited from earlier work
smiles,measurement,setting,value
"C=C(C)[C@@H]1CCC(C)=C[C@H]1c1c(O)cc(CCCCC)cc1O [CBD, Cannabidiol]",cell invasion,AML 621-101 cells,significantly block
same,rpS6 phosphorylation,[1],inhibited rpS6 phosphorylation
same,hypoxia induced expression of HIF-1α protein,HIF-1α protein [2],sufficient to block hypoxia induced expression of HIF-1α protein
same,hypoxia induced expression of HIF-1α protein,HIF-1α protein [3],sufficient to block hypoxia induced expression of HIF-1α protein
same,change in size of pS6 positive cells,"pS6 positive cells; main effect of treatment, compared to Danieau's or DMSO groups, FIG. 5B",−20.1%
same,effect on size of pS6 positive cells,pS6 positive cells; tsc2+/+ zebrafish,did not affect cell size
same,change in size of pS6 positive cells,"pS6 positive cells; tsc2+/− zebrafish, compared to Danieau's, FIG. 5C",−27.6%
same,change in size of pS6 positive cells,"pS6 positive cells; tsc2+/− zebrafish, compared to the DMSO group, FIG. 5C",−18.1%
same,change in size of pS6 positive cells,"pS6 positive cells; tsc2−/− zebrafish, compared to Danieau's, FIG. 5C",−23%
same,change in size of pS6 positive cells,"pS6 positive cells; tsc2−/− zebrafish, compared to the DMSO group, FIG. 5C",−20.8%
same,IC50,Miapaca cells,15 µM
same,seizure frequency,[4],significant reductions in seizure frequency
